# Assay results taken from patent US8551721B2, “Bioluminescent detection of cyanohydroxy benzothiazole compounds” (Promega Corporation, priority 2008, dated 2013).
# How the values were obtained:
# Assay type in all cases: biochemical
# [1] = molecular target: T1, UGT 2B15 (Homo sapiens, UniProt P54855); assay: UGT activity: utilization of substrate by recombinant UGT 2B15 Supersomes; details: 2 hour incubation at 37° C., plus vs minus UDPGA
# T1 construct: purchased BD Gentest; host or cells: insect cells (microsomes)
# T1 sequence (P54855 24-530): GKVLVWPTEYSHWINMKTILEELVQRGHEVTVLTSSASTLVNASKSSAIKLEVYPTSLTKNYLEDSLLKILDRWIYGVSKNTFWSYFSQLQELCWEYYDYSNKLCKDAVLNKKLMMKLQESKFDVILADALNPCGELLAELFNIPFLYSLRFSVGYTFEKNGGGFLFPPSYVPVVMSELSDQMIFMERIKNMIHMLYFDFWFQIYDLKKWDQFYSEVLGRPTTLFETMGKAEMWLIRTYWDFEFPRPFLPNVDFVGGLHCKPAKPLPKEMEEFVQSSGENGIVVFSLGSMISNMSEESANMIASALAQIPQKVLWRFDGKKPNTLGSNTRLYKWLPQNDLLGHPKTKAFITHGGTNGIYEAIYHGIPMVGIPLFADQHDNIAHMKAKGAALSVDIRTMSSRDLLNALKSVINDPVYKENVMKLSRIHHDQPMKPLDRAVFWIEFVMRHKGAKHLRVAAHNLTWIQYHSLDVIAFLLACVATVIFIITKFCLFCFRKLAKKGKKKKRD
# Protocol: (§1) The invention includes a method of determining activity of the uridine 5′-diphospho-glucuronosyltransferase (UDP-glucuronosyltransferase, or UGT) family enzymes in vitro. Briefly, UGT enzymes from overexpressed insect microsomes (Supersomes™, BD Gentest™) or animal tissue microsomes (Xenotech, BD Gentest™) were incubated with a cyanobenzothiazole substrate of the invention and the cofactor UDP-glucuronic acid (UDPGA) at 37° C. in buffer at physiological pH containing MgCl2 and alamethicin (typically, 50 mM TES, pH 7.5, 8 mM MgCl2, 4 mM UDPGA (Sigma) and 25 μg/mL alamethicin (Sigma)). Following the UGT enzyme reaction, an equal volume of P450-Glo Luciferin Detection Reagent (Promega) containing 15-30 mM D-cysteine-HCl.H2O (Sigma) was added and the plate was mixed and incubated at room temperature, typically for 20-30 minutes. […]
# (§2) During this incubation, the cysteine reacts with the cyanobenzathiozole substrate to yield a D-luciferin derivative. […] Therefore, activity of the UGT enzyme can be measured by analyzing the difference (lower or no output) in relative light units (RLU) of a sample in which glucuronidation occurs compared to a sample that was run under the same conditions with no added UDPGA cofactor. […]
# (§3) Reactions were assembled in a white 96-well plate. […] After the incubation was completed, the plate was read on a Veritas™ luminometer (Turner BioSystems, Inc.; Sunnyvale, Calif.). […]
# [2] = molecular target: T2, UGT 1A1 (Homo sapiens, UniProt P22309); assay: UGT activity: utilization of substrate by recombinant UGT 1A1 Supersomes; details: 2 hour incubation at 37° C., plus vs minus UDPGA, background corrected
# T2 construct: purchased BD Gentest; host or cells: insect cells (microsomes)
# T2 sequence (P22309 26-533): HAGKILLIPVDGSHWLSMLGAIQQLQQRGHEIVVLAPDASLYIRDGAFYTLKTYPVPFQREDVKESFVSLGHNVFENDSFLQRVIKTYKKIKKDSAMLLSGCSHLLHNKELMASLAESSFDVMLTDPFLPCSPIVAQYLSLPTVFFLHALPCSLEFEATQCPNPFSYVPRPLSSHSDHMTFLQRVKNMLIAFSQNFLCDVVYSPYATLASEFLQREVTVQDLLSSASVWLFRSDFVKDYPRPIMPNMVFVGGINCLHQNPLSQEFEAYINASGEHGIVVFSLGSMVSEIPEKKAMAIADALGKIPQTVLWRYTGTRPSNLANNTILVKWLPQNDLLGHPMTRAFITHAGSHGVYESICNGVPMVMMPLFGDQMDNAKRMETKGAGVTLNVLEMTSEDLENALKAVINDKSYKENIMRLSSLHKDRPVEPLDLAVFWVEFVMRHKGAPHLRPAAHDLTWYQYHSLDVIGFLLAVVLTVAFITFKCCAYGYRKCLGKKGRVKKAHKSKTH
# Protocol: as §1, §2, §3
# [3] = molecular target: T3, UGT 2B4 (Homo sapiens, UniProt P06133); assay: UGT activity: utilization of substrate by recombinant UGT 2B4 Supersomes; details: 2 hour incubation at 37° C., plus vs minus UDPGA
# T3 construct: purchased BD Gentest; host or cells: insect cells (microsomes)
# T3 sequence (P06133 24-528): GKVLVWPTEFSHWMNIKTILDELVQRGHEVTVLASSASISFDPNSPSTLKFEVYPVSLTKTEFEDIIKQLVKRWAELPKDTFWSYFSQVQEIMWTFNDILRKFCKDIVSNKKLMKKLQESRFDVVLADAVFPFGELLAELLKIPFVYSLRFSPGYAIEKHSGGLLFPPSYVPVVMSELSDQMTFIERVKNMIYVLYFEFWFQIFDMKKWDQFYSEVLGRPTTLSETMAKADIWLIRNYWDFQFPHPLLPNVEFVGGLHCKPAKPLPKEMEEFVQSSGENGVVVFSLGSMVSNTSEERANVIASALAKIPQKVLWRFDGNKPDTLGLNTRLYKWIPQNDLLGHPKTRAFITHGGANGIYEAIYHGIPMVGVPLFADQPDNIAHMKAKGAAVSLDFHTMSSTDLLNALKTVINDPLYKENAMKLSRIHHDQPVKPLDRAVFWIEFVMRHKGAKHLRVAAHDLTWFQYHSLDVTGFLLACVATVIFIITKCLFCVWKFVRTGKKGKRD
# Protocol: as §1, §2, §3
structure (smiles),measurement,setting,value
Cc1cc(O)cc2sc(C#N)nc12 [compound 3138],utilization by UGT 2B15 (in words),[1],detectable levels of utilization above background
same,% utilization by UGT 1A1,[2],over 50%
same,utilization by UGT 2B4 (in words),[3],did not utilize either compound 3138 or 3478 to an appreciable extent
Cc1cc(O)cc2sc(C3=NC(C(=O)O)CS3)nc12 (stereo not drawn) [compound 3478],utilization by UGT 2B15 (in words),[1],only UGT 1A6 was able to utilize compound 3478 to any appreciable extent
same,% utilization by UGT 1A1,[2],≤ 15%
same,utilization by UGT 2B4 (in words),[3],did not utilize either compound 3138 or 3478 to an appreciable extent
